Assay results published in patent US20060089412A1, “Pharmaceutical composition for the treatment of non-alcoholic fatty liver disease” (AJINOMOTO CO. INC., priority 2004, published 2006).

What was measured:
[1] = tested on: choline-deficient diet (CDD) rat model; assay: Choline-deficient diet (CDD) rat model of NASH-like liver change; format: in vivo, Male Wistar rats; conditions: CDD mixed with 4% L-alanine for 4 weeks
Description: Male Wistar rats (7 weeks of age, 5 rats per group) received CDD (Dyets Co.) for 4 weeks.
On the other hand, in the group of 5 rats received CDD mixed with 4% L-alanine for 4 weeks, one rat is normalized in liver weight (10.6 g).

[2] = tested on: HFD-induced fatty liver rat model; assay: Hepatic triglyceride contents in high-fat diet (HFD)-induced fatty liver rat model; format: in vivo, Male GK rats; conditions: diet mixed with 4% L-alanine for 6 weeks; one rat of 6, in the level of SD group
Description: It has been supposed that the increase of the amount of fat intake in the last few decades is one of the causes of the recent increase of the number of patients with NASH. Therefore, the effect of L-alanine on the hepatic triglyceride contents in the high-fat diet (hereinafter HFD)-induced fatty liver rat model.
Male GK rats (9 weeks of age, 6 rats per group) received HFD (containing 30% beef tallow) for 6 weeks. Triglyceride contents in the liver tissue was increased to 29.1 to 49.3 mg per gram of liver tissue, compared with those (14.1 to 24.2 mg) in the group fed with standard diet (containing 5% soy-been oil; hereinafter SD).
Pioglitazone is a drug, which acts as an insulin-sensitizer for the patients with diabetes. Recent clinical pilot studies raise the possibility of clinical utility of pioglitazone for NASH.
On the other hand, in the group of 6 rats received CDD mixed with 4% L-alanine for 6 weeks, one rat is reduced in the liver triglyceride contents (19.6 mg) in the level of SD group.

[3] = Body weight in HFD-induced fatty liver rat model; format: in vivo, Male GK rats; conditions: for body weight increase compared with HFD alone: 6 weeks, HFD + drug versus HFD alone; for Body Weight, Pre: before feeding
Description: Male GK rats (9 weeks of age, 6 rats per group) received HFD (containing 30% beef tallow) for 6 weeks.

Compound | liver weight ([1]; one rat of 5 (normalized), CDD alone 14.5 to 20.0 g) [g] | histological fat accumulation in the liver ([1]; the one rat of 5 with normalized liver weight) | liver triglyceride contents [2] [mg] | body weight increase compared with HFD alone [3] | Body Weight, Post (at 6 weeks) ([3]; after 6 weeks of HFD mixed with drug, means ± SD (n = 6)) [g] | Body Weight, Pre ([3]; means ± SD (n = 6)) [g]
C[C@H](N)C(=O)O [L-alanine] | 10.6 | not recognized | 19.6 | not observed | 331.8 ± 20.5 | 219.8 ± 13.0
CCc1ccc(CCOc2ccc(CC3SC(=O)NC3=O)cc2)nc1 (centres unmarked) [pioglitazone, reference compound] |  |  |  | significantly more increased |  | 222.1 ± 9.9
